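Cells were grown in 96-well plates and exposed to each compound for 48 hours at five concentrations; endpoints were interpolated linearly between bracketing concentrations, or set to the highest concentration if not reached. Definition used: TGI = concentration required for complete inhibition of growth.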
Columns and labels:
Assay in all cases: DTP human tumour cell line panel, 48 h
M14 melanoma = test system: M14 melanoma
SK-MEL-2 melanoma = test system: SK-MEL-2 melanoma
OVCAR-5 ovarian = test system: OVCAR-5 ovarian
HL-60(TB) leukemia = test system: HL-60(TB) leukemia
COLO 205 colon = test system: COLO 205 colon
MALME-3M melanoma = test system: MALME-3M melanoma
SK-MEL-5 melanoma = test system: SK-MEL-5 melanoma
SK-OV-3 ovarian = test system: SK-OV-3 ovarian
OVCAR-3 ovarian = test system: OVCAR-3 ovarian
SK-MEL-28 melanoma = test system: SK-MEL-28 melanoma
K-562 leukemia = test system: K-562 leukemia
OVCAR-8 ovarian = test system: OVCAR-8 ovarian
U251 CNS = test system: U251 CNS
SF-539 CNS = test system: SF-539 CNS
MOLT-4 leukemia = test system: MOLT-4 leukemia
XF 498 CNS = test system: XF 498 CNS
SNB-78 CNS = test system: SNB-78 CNS
RXF-631 renal = test system: RXF-631 renal
DLD-1 colon = test system: DLD-1 colon
TK-10 renal = test system: TK-10 renal
SR leukemia = test system: SR leukemia
HCC-2998 colon = test system: HCC-2998 colon
SNB-19 CNS = test system: SNB-19 CNS
786-0 renal = test system: 786-0 renal
LXFL 529 NSCLC = test system: LXFL 529 NSCLC
A549 NSCLC = test system: A549 NSCLC
CCRF-CEM leukemia = test system: CCRF-CEM leukemia
SN12C renal = test system: SN12C renal
RXF 393 renal = test system: RXF 393 renal
SF-295 CNS = test system: SF-295 CNS
EKVX NSCLC = test system: EKVX NSCLC
HT29 colon = test system: HT29 colon
HOP-92 NSCLC = test system: HOP-92 NSCLC
SF-268 CNS = test system: SF-268 CNS
OVCAR-4 ovarian = test system: OVCAR-4 ovarian
KM20L2 colon = test system: KM20L2 colon
NCI-H23 lung = test system: NCI-H23 lung
M19-MEL melanoma = test system: M19-MEL melanoma
SW-620 colon = test system: SW-620 colon
IGROV1 ovarian = test system: IGROV1 ovarian
UACC-62 melanoma = test system: UACC-62 melanoma
CAKI-1 renal = test system: CAKI-1 renal
KM12 colon = test system: KM12 colon
NCI-H522 lung = test system: NCI-H522 lung
DMS 114 small cell lung = test system: DMS 114 small cell lung
UO-31 renal = test system: UO-31 renal
HCT-15 colon = test system: HCT-15 colon
ACHN renal = test system: ACHN renal
HOP-18 NSCLC = test system: HOP-18 NSCLC
UACC-257 melanoma = test system: UACC-257 melanoma
RPMI-8226 leukemia = test system: RPMI-8226 leukemia
NCI-H226 lung = test system: NCI-H226 lung
NCI-H460 lung = test system: NCI-H460 lung
HOP-62 NSCLC = test system: HOP-62 NSCLC
A498 renal = test system: A498 renal
HCT-116 colon = test system: HCT-116 colon
SNB-75 CNS = test system: SNB-75 CNS
LOX IMVI melanoma = test system: LOX IMVI melanoma

Compound `O=C(N/C(=C\c1ccccc1Cl)c1nc2ccccc2[nH]1)c1ccccc1` has a TGI (M14 melanoma) of 54.3 µM, a TGI (SK-MEL-2 melanoma) of 51.8 µM and a TGI (OVCAR-5 ovarian) greater than 100 µM. The TGI (HL-60(TB) leukemia) was 71.4 µM, the TGI (COLO 205 colon) was greater than 100 µM and the TGI (MALME-3M melanoma) was 74.8 µM. It also gave a TGI (SK-MEL-5 melanoma) of 34.2 µM, a TGI (SK-OV-3 ovarian) greater than 100 µM and a TGI (OVCAR-3 ovarian) greater than 100 µM. The TGI (SK-MEL-28 melanoma) was greater than 100 µM, the TGI (K-562 leukemia) was greater than 100 µM and the TGI (OVCAR-8 ovarian) was greater than 100 µM. It also gave a TGI (U251 CNS) greater than 100 µM, a TGI (SF-539 CNS) greater than 100 µM and a TGI (MOLT-4 leukemia) greater than 100 µM. For the same compound, the TGI (XF 498 CNS) was 57.5 µM, the TGI (SNB-78 CNS) was greater than 100 µM and the TGI (RXF-631 renal) was greater than 100 µM. For the same compound, the TGI (DLD-1 colon) was greater than 100 µM, the TGI (TK-10 renal) was greater than 100 µM and the TGI (SR leukemia) was 79.3 µM. The TGI (HCC-2998 colon) was 91 µM, the TGI (SNB-19 CNS) was greater than 100 µM and the TGI (786-0 renal) was greater than 100 µM. For the same compound, the TGI (LXFL 529 NSCLC) was greater than 100 µM, the TGI (A549 NSCLC) was greater than 100 µM and the TGI (CCRF-CEM leukemia) was greater than 100 µM. It also gave a TGI (SN12C renal) of 61.5 µM, a TGI (RXF 393 renal) of 91.5 µM and a TGI (SF-295 CNS) of 43.4 µM. It also gave a TGI (EKVX NSCLC) of 88 µM, a TGI (HT29 colon) of 87.2 µM and a TGI (HOP-92 NSCLC) of 34.1 µM. It also gave a TGI (SF-268 CNS) greater than 100 µM, a TGI (OVCAR-4 ovarian) greater than 100 µM and a TGI (KM20L2 colon) greater than 100 µM. The TGI (NCI-H23 lung) was greater than 100 µM, the TGI (M19-MEL melanoma) was greater than 100 µM and the TGI (SW-620 colon) was greater than 100 µM. The TGI (IGROV1 ovarian) was greater than 100 µM, the TGI (UACC-62 melanoma) was greater than 100 µM and the TGI (CAKI-1 renal) was greater than 100 µM. For the same compound, the TGI (KM12 colon) was greater than 100 µM, the TGI (NCI-H522 lung) was 72.5 µM and the TGI (DMS 114 small cell lung) was greater than 100 µM. It also gave a TGI (UO-31 renal) of 44.8 µM, a TGI (HCT-15 colon) greater than 100 µM and a TGI (ACHN renal) greater than 100 µM.

In the case of `C/C(=N\NC(=S)NC(CCC(=O)O)C(=O)O)c1cnccn1` (stereo not given), the TGI (M14 melanoma) is reported as greater than 100 µM, the TGI (SK-MEL-2 melanoma) is reported as greater than 100 µM and the TGI (OVCAR-5 ovarian) is reported as greater than 100 µM. The TGI (HOP-18 NSCLC) was greater than 100 µM, the TGI (HL-60(TB) leukemia) was greater than 100 µM and the TGI (COLO 205 colon) was greater than 100 µM. For the same compound, the TGI (MALME-3M melanoma) was greater than 100 µM, the TGI (SK-MEL-5 melanoma) was greater than 100 µM and the TGI (SK-OV-3 ovarian) was greater than 100 µM. It also gave a TGI (OVCAR-3 ovarian) greater than 100 µM, a TGI (SK-MEL-28 melanoma) greater than 100 µM and a TGI (K-562 leukemia) greater than 100 µM. It also gave a TGI (OVCAR-8 ovarian) greater than 100 µM, a TGI (UACC-257 melanoma) greater than 100 µM and a TGI (U251 CNS) greater than 100 µM. It also gave a TGI (SF-539 CNS) greater than 100 µM, a TGI (MOLT-4 leukemia) greater than 100 µM and a TGI (RPMI-8226 leukemia) greater than 100 µM. For the same compound, the TGI (XF 498 CNS) was greater than 100 µM, the TGI (SNB-78 CNS) was greater than 100 µM and the TGI (NCI-H226 lung) was greater than 100 µM. It also gave a TGI (RXF-631 renal) greater than 100 µM, a TGI (DLD-1 colon) greater than 100 µM and a TGI (TK-10 renal) greater than 100 µM. The TGI (SR leukemia) was greater than 100 µM, the TGI (NCI-H460 lung) was greater than 100 µM and the TGI (HCC-2998 colon) was greater than 100 µM. It also gave a TGI (SNB-19 CNS) greater than 100 µM, a TGI (HOP-62 NSCLC) greater than 100 µM and a TGI (A498 renal) greater than 100 µM. It also gave a TGI (786-0 renal) greater than 100 µM, a TGI (LXFL 529 NSCLC) greater than 100 µM and a TGI (A549 NSCLC) greater than 100 µM. For the same compound, the TGI (CCRF-CEM leukemia) was greater than 100 µM, the TGI (SN12C renal) was greater than 100 µM and the TGI (RXF 393 renal) was greater than 100 µM. The TGI (SF-295 CNS) was greater than 100 µM, the TGI (EKVX NSCLC) was greater than 100 µM and the TGI (HT29 colon) was greater than 100 µM. For the same compound, the TGI (HOP-92 NSCLC) was greater than 100 µM, the TGI (SF-268 CNS) was greater than 100 µM and the TGI (OVCAR-4 ovarian) was greater than 100 µM. It also gave a TGI (HCT-116 colon) greater than 100 µM, a TGI (KM20L2 colon) greater than 100 µM and a TGI (NCI-H23 lung) greater than 100 µM. For the same compound, the TGI (M19-MEL melanoma) was greater than 100 µM, the TGI (SW-620 colon) was greater than 100 µM and the TGI (IGROV1 ovarian) was greater than 100 µM. The TGI (SNB-75 CNS) was greater than 100 µM, the TGI (UACC-62 melanoma) was greater than 100 µM and the TGI (KM12 colon) was greater than 100 µM. It also gave a TGI (NCI-H522 lung) greater than 100 µM, a TGI (DMS 114 small cell lung) greater than 100 µM and a TGI (LOX IMVI melanoma) greater than 100 µM. It also gave a TGI (UO-31 renal) greater than 100 µM, a TGI (HCT-15 colon) greater than 100 µM and a TGI (ACHN renal) greater than 100 µM.

Reference: PubChem BioAssay (NCI)
